Experiments:
[1] = biological target: T1, human TLR8 (Homo sapiens, UniProt Q9NR97); experiment: HEK293 NFKB reporter assay, human TLR8; assay type: cell-based; conditions: HEK293 NFKB reporter cells expressing human TLR8; read-out: HEK293 hTLR8 EC50
T1 construct: host or cells: HEK293 reporter cells
T1 sequence (Q9NR97 27-1041): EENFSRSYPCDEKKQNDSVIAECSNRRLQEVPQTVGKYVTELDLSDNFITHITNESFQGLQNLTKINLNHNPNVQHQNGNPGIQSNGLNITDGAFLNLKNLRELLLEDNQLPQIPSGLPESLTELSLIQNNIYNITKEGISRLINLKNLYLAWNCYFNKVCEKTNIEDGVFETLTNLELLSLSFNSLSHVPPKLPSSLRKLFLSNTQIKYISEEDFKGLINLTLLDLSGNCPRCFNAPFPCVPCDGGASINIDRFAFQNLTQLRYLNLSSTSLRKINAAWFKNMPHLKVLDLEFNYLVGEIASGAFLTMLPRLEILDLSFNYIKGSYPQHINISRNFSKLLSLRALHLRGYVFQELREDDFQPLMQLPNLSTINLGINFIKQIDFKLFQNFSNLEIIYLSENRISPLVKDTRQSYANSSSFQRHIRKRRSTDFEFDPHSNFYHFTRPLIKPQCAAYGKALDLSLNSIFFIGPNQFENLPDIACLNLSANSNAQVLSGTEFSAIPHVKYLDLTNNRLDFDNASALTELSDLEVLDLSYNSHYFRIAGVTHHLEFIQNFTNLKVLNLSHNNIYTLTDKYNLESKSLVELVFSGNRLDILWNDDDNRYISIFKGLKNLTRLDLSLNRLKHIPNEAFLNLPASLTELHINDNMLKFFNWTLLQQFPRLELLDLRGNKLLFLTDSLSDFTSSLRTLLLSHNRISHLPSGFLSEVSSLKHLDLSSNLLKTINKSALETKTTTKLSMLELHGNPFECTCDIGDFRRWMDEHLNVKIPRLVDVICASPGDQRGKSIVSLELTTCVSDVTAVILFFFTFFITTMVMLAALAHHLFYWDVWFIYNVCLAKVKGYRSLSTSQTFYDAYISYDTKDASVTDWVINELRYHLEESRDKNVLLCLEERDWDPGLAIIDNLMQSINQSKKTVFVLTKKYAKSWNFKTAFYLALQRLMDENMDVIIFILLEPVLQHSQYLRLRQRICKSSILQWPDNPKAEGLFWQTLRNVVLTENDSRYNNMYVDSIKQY
Outline: (§1)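 HEK293 NF-κB reporter cells expressing human TLR7 or TLR8 were seeded at 4×10^4 cells/well in HEK detection medium containing the stimulatory molecules. Reporter activity was read by absorbance at 620-655 nm.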

[2] = biological target: T2, human TLR7 (Homo sapiens, UniProt Q9NYK1); experiment: HEK293 NFKB reporter assay, human TLR7; assay type: cell-based; conditions: HEK293 NFKB reporter cells expressing human TLR7; read-out: HEK293 hTLR7 EC50
T2 construct: host or cells: HEK293 reporter cells
T2 sequence (Q9NYK1 27-1049): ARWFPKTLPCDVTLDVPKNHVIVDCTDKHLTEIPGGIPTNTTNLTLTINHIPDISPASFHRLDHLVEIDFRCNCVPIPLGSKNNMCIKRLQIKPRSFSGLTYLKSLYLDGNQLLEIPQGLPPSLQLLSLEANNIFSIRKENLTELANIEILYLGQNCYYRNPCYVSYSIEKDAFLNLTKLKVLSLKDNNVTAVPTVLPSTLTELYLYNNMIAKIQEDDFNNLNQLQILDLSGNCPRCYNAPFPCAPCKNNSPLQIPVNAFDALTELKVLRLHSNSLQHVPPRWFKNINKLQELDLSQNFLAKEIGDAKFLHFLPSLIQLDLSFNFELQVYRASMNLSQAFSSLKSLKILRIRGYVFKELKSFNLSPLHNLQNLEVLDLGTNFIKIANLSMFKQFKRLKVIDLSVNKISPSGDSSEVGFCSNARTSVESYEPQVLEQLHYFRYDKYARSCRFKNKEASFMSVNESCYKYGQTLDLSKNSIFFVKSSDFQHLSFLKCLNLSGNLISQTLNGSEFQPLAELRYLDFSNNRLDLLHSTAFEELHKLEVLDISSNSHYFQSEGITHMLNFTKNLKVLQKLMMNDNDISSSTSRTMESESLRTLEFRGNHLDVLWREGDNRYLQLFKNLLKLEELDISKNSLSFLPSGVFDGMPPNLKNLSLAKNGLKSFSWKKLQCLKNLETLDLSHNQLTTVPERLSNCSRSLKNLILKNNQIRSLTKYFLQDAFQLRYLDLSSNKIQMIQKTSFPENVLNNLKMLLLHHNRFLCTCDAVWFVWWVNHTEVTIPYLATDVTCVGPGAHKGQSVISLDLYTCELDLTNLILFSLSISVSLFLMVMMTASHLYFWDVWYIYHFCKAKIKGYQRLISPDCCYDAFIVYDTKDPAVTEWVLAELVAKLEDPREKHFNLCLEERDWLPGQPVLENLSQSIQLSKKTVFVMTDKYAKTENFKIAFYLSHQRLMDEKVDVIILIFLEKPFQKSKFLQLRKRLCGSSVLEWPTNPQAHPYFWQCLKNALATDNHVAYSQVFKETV
Outline: as §1

SMILES	EC50 [1] [µM]	EC50 [2] [µM]
CCCN(OCC)C(=O)C1=Cc2sc(CCC3CCN(C(=O)OC(C)(C)C)CC3)cc2N=C(N)C1 [TAZ-175]	0.474	4.18
CCCN(CCC)C(=O)C1=Cc2sc(S(=O)(=O)NCCCNC(=O)OC(C)(C)C)cc2N=C(N)C1 [TAZ-55]	> 9	> 9
CCCN(C(=O)C1=Cc2sccc2N=C(N)C1)C(C)c1ccc(CN)cc1 (stereo not shown) [TAZ-88]	2.27	> 9
CCCN(OCC)C(=O)C1=Cc2sc(CN3CC4(C3)CN(c3ccc(C)cc3)C4)cc2N=C(N)C1 [TAZ-219]	0.847	3.2
CCCN(CCC)C(=O)C1=Cc2sc(CNC(=O)CCNC(=O)OC(C)(C)C)cc2N=C(N)C1 [TAZ-91]	4.15	4.28
CCCN(CCC)C(=O)C1=Cc2sc(CCCCNC(=O)OC(C)(C)C)cc2N=C(N)C1 [TAZ-36]	> 9	8.52
CCCN(OCC)C(=O)C1=Cc2sc(CCC3CNC3)cc2N=C(N)C1 [TAZ-195]	0.953	6.6
CCCN(CCCNC(=O)C(C)(C)C)C(=O)C1=Cc2sc(CCCCCNC(=O)OC(C)(C)C)cc2N=C(N)C1 [TAZ-141]	3.58	0.38
CCCN(C[C@H]1C[C@@H](CN)C1)C(=O)C1=Cc2sccc2N=C(N)C1 [TAZ-49]	> 9	> 9
CCCN(NCC)C(=O)C1=Cc2sccc2N=C(N)C1 [TAZ-85]	4.03	> 9
CCCN(OCC)C(=O)C1=Cc2sc(CN3CCCN(C(=O)OC(C)(C)C)CC3)cc2N=C(N)C1 [TAZ-226]	4.43	0.436
CCCN(CCCNC(=O)OC1CCC1)C(=O)C1=Cc2sc(CN)cc2N=C(N)C1 [TAZ-171]	3.13	5.29
CCCN(CCCNC(=O)OC(C)(C)C)C(=O)C1=Cc2sc(CCCCCN)cc2N=C(N)C1 [TAZ-133, tert-butyl (3-(5-amino-2-(5-aminopentyl)-N-propyl-6H-thieno[3,2-b]azepine-7-carboxamido)propyl)carbamate]	3.01	0.586
CCCN(OC(C)C)C(=O)C1=Cc2sc(CC3CNC3)cc2N=C(N)C1 [TAZ-253, 5-amino-2-(azetidin-3-ylmethyl)-N-isopropoxy-N-propyl-6H-thieno[3,2-b]azepine-7-carboxamide]	0.192	7.17
CCCN(OCC)C(=O)C1=Cc2sc(CN3CC4CCC(C3)N4C(=O)OC(C)(C)C)cc2N=C(N)C1 [TAZ-241]	3.06	2.81
CCCN(CCCNC(=O)OC1CCC1)C(=O)C1=Cc2sc(CCC3CCNCC3)cc2N=C(N)C1 [TAZ-166]	3.7	0.802
CCCN(CCC)C(=O)C1=Cc2sc(CNC(=O)CNC(=O)OC(C)(C)C)cc2N=C(N)C1 [TAZ-93]	3.13	4.49
CCCN(CCC)C(=O)C1=Cc2sc(COCCCNC(=O)OC(C)(C)C)cc2N=C(N)C1 [TAZ-66]	4.24	4.42

SMILES	EC50 [1] [µM]	EC50 [2] [µM]
CCCN(Cc1ccc(CN(C)C)cc1C(F)(F)F)C(=O)C1=Cc2sc(CCCCCN)cc2N=C(N)C1 [TAZ-144]	2.86	1.28
CCCN(C[C@H]1C[C@@H](CNC(=O)OC(C)(C)C)C1)C(=O)C1=Cc2sccc2N=C(N)C1 [TAZ-48]	> 9	> 9
CCCN(OCC)C(=O)C1=Cc2sc(CN3CCC(N)C3)cc2N=C(N)C1 (stereo not shown) [TAZ-234]	0.361	3.33
CCCN(CCCNC(=O)OC1CCC1)C(=O)C1=Cc2sc(C#CC3CNC3)cc2N=C(N)C1 [TAZ-192]	3.48	0.824
CCCN(OCC)C(=O)C1=Cc2sc(C#CC3CNC3)cc2N=C(N)C1 [TAZ-193]	1.52	3.36
CCCN(CCCNC(=O)OC1CCC1)C(=O)C1=Cc2sc(-c3cn[nH]c3)cc2N=C(N)C1 [TAZ-172]	3.7	0.153
[2H]C1=C(C(=O)N(CCC)Cc2ccc(CNC(=O)OC(C)(C)C)nc2)CC(N)=Nc2ccsc21 [TAZ-50]	7.94	7.12
CCCN(CCC)C(=O)C1=Cc2sc(CNC(=O)CCN)cc2N=C(N)C1 [TAZ-90]	3.19	0.909
CCCN(CC12CC(CN(C)C)(C1)C2)C(=O)C1=Cc2sccc2N=C(N)C1 [TAZ-47]	> 9	> 9
CCCN(OCC)C(=O)C1=Cc2sc(CN3CC4CCC(C3)N4)cc2N=C(N)C1 [TAZ-245]	0.145	5.02
CCON(C(=O)C1=Cc2sc(CC3CN(C(=O)OC(C)(C)C)C3)cc2N=C(N)C1)C(C)CC (stereo not shown) [TAZ-254]	8.27	8.13
CCCN(OCC)C(=O)C1=Cc2sc(CN3CCC(C(=O)OC)CC3)cc2N=C(N)C1 [TAZ-222]	2.83	4.89
CCCN(CC12CC(CNC(=O)OC(C)(C)C)(C1)C2)C(=O)C1=Cc2sccc2N=C(N)C1 [TAZ-40]	> 9	> 9
CCCN(Cc1ccc(CO)cc1)C(=O)C1=Cc2sccc2N=C(N)C1 [TAZ-96]	0.326	2.96
CCCN(Cc1ccc(CN)cc1C(F)(F)F)C(=O)C1=Cc2sccc2N=C(N)C1 [TAZ-52, 5-amino-N-[[4-(aminomethyl)-2-(trifluoromethyl)phenyl]methyl]-N-propyl-6H-thieno[3,2-b]azepine-7-carboxamide]	0.151	2.71
CCCN(CCC)C(=O)C1=Cc2sc(C#CCCCN)cc2N=C(N)C1 [TAZ-33]	> 9	> 9
CCCN(Cc1cnc(CN)cn1)C(=O)C1=Cc2sccc2N=C(N)C1 [TAZ-62]	0.178	8.32
